The values that follow come from patent US6936585B2, “Corticotropin releasing factor 2 receptor agonists” (priority 2002, dated 2005).

A word on the Emax: it is the size of the effect at its maximum, as opposed to the concentration needed. Broadly, the EC50 is the concentration giving half of the maximal effect.

Peptide text beside a SMILES is read from it. Where only a bound is given, the exact number is not on record here.

One assay has as its target T1, CRF2R (Homo sapiens, UniProt Q13324).
T1 sequence (Q13324 1-411): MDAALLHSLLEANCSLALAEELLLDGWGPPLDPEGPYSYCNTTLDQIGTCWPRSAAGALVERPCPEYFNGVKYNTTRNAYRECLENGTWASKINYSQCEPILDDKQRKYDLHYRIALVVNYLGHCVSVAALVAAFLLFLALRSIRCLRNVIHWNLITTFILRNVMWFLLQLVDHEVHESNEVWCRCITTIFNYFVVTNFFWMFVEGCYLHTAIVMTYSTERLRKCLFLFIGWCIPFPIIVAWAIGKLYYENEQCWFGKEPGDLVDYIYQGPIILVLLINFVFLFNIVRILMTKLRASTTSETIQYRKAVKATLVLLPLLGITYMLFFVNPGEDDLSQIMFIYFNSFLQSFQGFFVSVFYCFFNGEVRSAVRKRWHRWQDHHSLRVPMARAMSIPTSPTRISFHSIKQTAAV
Nature of the assay: CRF2R agonist activation (EC50 / Emax), called comparative CRF binding. In kind it is cell-based. To be noted: for Emax: read-out: CRF2R Emax. Put shortly:
(§1)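 CRFR-expressing cells + peptide vs vehicle; read-out cAMP (lysate assay) or CRE-linked reporter expression (luciferase, CAT, fluorescent protein, alkaline phosphatase, etc.). Signal compared against vehicle-treated cells.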

In another assay the target is T2, CRF1R (Homo sapiens, UniProt P34998).
T2 sequence (P34998 24-415): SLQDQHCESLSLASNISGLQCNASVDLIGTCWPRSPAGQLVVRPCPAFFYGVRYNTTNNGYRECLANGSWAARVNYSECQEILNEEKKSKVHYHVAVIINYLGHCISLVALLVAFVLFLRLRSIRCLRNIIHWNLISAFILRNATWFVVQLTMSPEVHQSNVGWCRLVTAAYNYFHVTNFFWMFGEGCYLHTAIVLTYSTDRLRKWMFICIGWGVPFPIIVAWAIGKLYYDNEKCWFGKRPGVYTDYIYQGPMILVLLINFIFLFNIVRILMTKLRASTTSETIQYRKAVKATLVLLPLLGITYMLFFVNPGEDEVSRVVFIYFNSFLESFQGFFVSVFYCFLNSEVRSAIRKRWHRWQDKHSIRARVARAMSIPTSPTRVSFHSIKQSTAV
Nature of the assay: CRF1R agonist activation (EC50 / Emax), called comparative CRF binding. Type of assay: cell-based. To be noted: for Emax: read-out: CRF1R Emax. Put shortly: as §1

Take `CC[C@H](C)[C@H](NC(=O)[C@H](CCCNC(=N)N)NC(=O)[C@H](C)NC(=O)[C@H](CC(N)=O)NC(=O)[C@H](CCC(N)=O)NC(=O)[C@H](CCC(=O)O)NC(=O)[C@H](C)NC(=O)[C@H](CCCNC(=N)N)NC(=O)[C@H](CCC(=O)O)NC(=O)[C@H](CCCNC(=N)N)NC(=O)[C@H](CCC(N)=O)NC(=O)[C@H](CO)NC(=O)[C@H](CCC(N)=O)NC(=O)[C@@H](NC(=O)[C@H](CCCCN)NC(=O)[C@H](CCC(=O)O)NC(=O)[C@H](CC(C)C)NC(=O)[C@H](CCC(=O)O)NC(=O)[C@H](CC(C)C)NC(=O)[C@H](CC(C)C)NC(=O)[C@@H](NC(=O)[C@H](CCCNC(=N)N)NC(=O)[C@H](CC(C)C)NC(=O)[C@H](CC(C)C)NC(=O)[C@H](CC(C)C)NC(=O)[C@H](CC(C)C)NC(=O)[C@@H]1CCCN1C(=O)[C@H](CC(C)C)NC(=O)[C@H](CC(=O)O)NC(=O)[C@@H](NC(=O)[C@H](CO)NC(=O)[C@H](CC(C)C)NC(=O)[C@H](CO)NC(=O)[C@@H]1CCCN1C(=O)[C@H](CC(N)=O)NC(=O)[C@@H](N)CC(=O)O)[C@@H](C)CC)[C@@H](C)O)[C@@H](C)O)C(=O)N[C@@H](Cc1ccccc1)C(=O)N[C@@H](C)C(=O)N[C@@H](CCCNC(=N)N)C(=O)N[C@H](C(N)=O)C(C)C` [compound 341] (H-DNPSLSIDLPLLLLRTLLELEKTQSQRERAEQNARIFARV-NH2; N-terminus assumed): the maximum response (Emax) stood at 95.5% at CRF2R and 82.3% at CRF1R.
`CC[C@H](C)[C@H](NC(=O)[C@H](C)NC(=O)[C@H](CC(N)=O)NC(=O)[C@H](CCC(N)=O)NC(=O)[C@H](CCC(=O)O)NC(=O)[C@H](C)NC(=O)[C@H](CCCNC(=N)N)NC(=O)[C@H](CCC(=O)O)NC(=O)[C@H](CCCNC(=N)N)NC(=O)[C@H](CCC(N)=O)NC(=O)[C@H](CO)NC(=O)[C@H](CCC(N)=O)NC(=O)[C@@H](NC(=O)[C@H](CCCCN)NC(=O)[C@H](CCC(=O)O)NC(=O)[C@H](CC(C)C)NC(=O)[C@H](CCC(=O)O)NC(=O)[C@H](CC(C)C)NC(=O)[C@H](CC(C)C)NC(=O)[C@@H](NC(=O)[C@H](CCCNC(=N)N)NC(=O)[C@H](CC(C)C)NC(=O)[C@H](CC(C)C)NC(=O)[C@H](CCC(N)=O)NC(=O)[C@H](CC(C)C)NC(=O)[C@@H]1CCCN1C(=O)[C@H](CC(C)C)NC(=O)[C@H](CC(=O)O)NC(=O)[C@@H](NC(=O)[C@H](CO)NC(=O)[C@H](CC(C)C)NC(=O)[C@H](CO)NC(=O)[C@@H]1CCCN1C(=O)[C@H](CC(N)=O)NC(=O)[C@@H](N)CC(=O)O)[C@@H](C)CC)[C@@H](C)O)[C@@H](C)O)C(=O)N[C@H](C(=O)N[C@@H](Cc1ccccc1)C(=O)N[C@@H](C)C(=O)N[C@@H](CO)C(=O)N[C@H](C(N)=O)C(C)C)[C@@H](C)CC` [compound 342] (H-DNPSLSIDLPLQLLRTLLELEKTQSQRERAEQNAIIFASV-NH2; N-terminus assumed): the maximal response (Emax) came out at 92.2% at CRF2R and 19.6% at CRF1R.
Regarding `CC[C@H](C)[C@H](NC(=O)[C@H](C)NC(=O)[C@H](CC(N)=O)NC(=O)[C@H](CCC(N)=O)NC(=O)[C@H](CCC(=O)O)NC(=O)[C@H](C)NC(=O)[C@H](CCCNC(=N)N)NC(=O)[C@H](CCC(=O)O)NC(=O)[C@H](CCCNC(=N)N)NC(=O)[C@H](CCC(N)=O)NC(=O)[C@H](CO)NC(=O)[C@H](CCC(N)=O)NC(=O)[C@@H](NC(=O)[C@H](CCCCN)NC(=O)[C@H](CCC(=O)O)NC(=O)[C@H](CC(C)C)NC(=O)[C@H](CCC(=O)O)NC(=O)[C@H](CC(C)C)NC(=O)[C@H](CC(C)C)NC(=O)[C@@H](NC(=O)[C@H](CCCNC(=N)N)NC(=O)[C@H](CC(C)C)NC(=O)[C@H](CC(C)C)NC(=O)[C@H](Cc1ccccc1)NC(=O)[C@H](CC(C)C)NC(=O)[C@@H]1CCCN1C(=O)[C@H](CC(C)C)NC(=O)[C@H](CC(=O)O)NC(=O)[C@@H](NC(=O)[C@H](CO)NC(=O)[C@H](CC(C)C)NC(=O)[C@H](CO)NC(=O)[C@@H]1CCCN1C(=O)[C@H](CC(N)=O)NC(=O)[C@@H](N)CC(=O)O)[C@@H](C)CC)[C@@H](C)O)[C@@H](C)O)C(=O)N[C@H](C(=O)N[C@@H](Cc1ccccc1)C(=O)N[C@@H](C)C(=O)N[C@@H](CO)C(=O)N[C@H](C(N)=O)C(C)C)[C@@H](C)CC` [compound 343] (H-DNPSLSIDLPLFLLRTLLELEKTQSQRERAEQNAIIFASV-NH2; N-terminus assumed), the Emax on CRF2R is 96.5%; at CRF1R, 62.5%.
As for `CC[C@H](C)[C@H](NC(=O)[C@H](C)NC(=O)[C@H](CC(N)=O)NC(=O)[C@H](CCC(N)=O)NC(=O)[C@H](CCC(=O)O)NC(=O)[C@H](C)NC(=O)[C@H](CCCNC(=N)N)NC(=O)[C@H](CCC(=O)O)NC(=O)[C@H](CCCNC(=N)N)NC(=O)[C@H](CCC(N)=O)NC(=O)[C@H](CO)NC(=O)[C@H](CCC(N)=O)NC(=O)[C@@H](NC(=O)[C@H](CCCCN)NC(=O)[C@H](CCC(=O)O)NC(=O)[C@H](CC(C)C)NC(=O)[C@H](CCC(=O)O)NC(=O)[C@H](CC(C)C)NC(=O)[C@H](CC(C)C)NC(=O)[C@@H](NC(=O)[C@H](CCCNC(=N)N)NC(=O)[C@H](CC(C)C)NC(=O)[C@H](CC(C)C)NC(=O)[C@H](CC(C)C)NC(=O)[C@H](CC(C)C)NC(=O)[C@@H]1CCCN1C(=O)[C@H](CC(C)C)NC(=O)[C@H](CC(=O)O)NC(=O)[C@@H](NC(=O)[C@H](CO)NC(=O)[C@H](CC(C)C)NC(=O)[C@H](CO)NC(=O)[C@@H]1CCCN1)[C@@H](C)CC)[C@@H](C)O)[C@@H](C)O)C(=O)N[C@H](C(=O)N[C@@H](Cc1ccccc1)C(=O)N[C@@H](C)C(=O)N[C@@H](CO)C(=O)N[C@H](C(N)=O)C(C)C)[C@@H](C)CC` [compound 344] (H-PSLSIDLPLLLLRTLLELEKTQSQRERAEQNAIIFASV-NH2), the Emax turned out to be 94.5% on CRF2R and 77.7% on CRF1R.
In the case of `CC[C@H](C)[C@H](NC(=O)[C@H](C)NC(=O)[C@H](CC(N)=O)NC(=O)[C@H](CCC(N)=O)NC(=O)[C@H](CCC(=O)O)NC(=O)[C@H](C)NC(=O)[C@H](CCCNC(=N)N)NC(=O)[C@H](CCC(=O)O)NC(=O)[C@H](CCCNC(=N)N)NC(=O)[C@H](CCC(N)=O)NC(=O)[C@H](CO)NC(=O)[C@H](CCC(N)=O)NC(=O)[C@@H](NC(=O)[C@H](CCCCN)NC(=O)[C@H](CCC(=O)O)NC(=O)[C@H](CC(C)C)NC(=O)[C@H](CCC(=O)O)NC(=O)[C@H](CC(C)C)NC(=O)[C@H](CC(C)C)NC(=O)[C@@H](NC(=O)[C@H](CCCNC(=N)N)NC(=O)[C@H](CC(C)C)NC(=O)[C@H](CC(C)C)NC(=O)[C@@H](NC(=O)[C@H](CC(C)C)NC(=O)[C@@H]1CCCN1C(=O)[C@H](CC(C)C)NC(=O)[C@H](CC(=O)O)NC(=O)[C@@H](NC(=O)[C@H](CO)NC(=O)[C@H](CC(C)C)NC(=O)[C@H](CO)NC(=O)[C@@H]1CCCN1C(=O)[C@H](CC(N)=O)NC(=O)[C@@H](N)CC(=O)O)[C@@H](C)CC)[C@@H](C)CC)[C@@H](C)O)[C@@H](C)O)C(=O)N[C@H](C(=O)N[C@@H](Cc1ccccc1)C(=O)N[C@@H](C)C(=O)N[C@@H](CO)C(=O)N[C@H](C(N)=O)C(C)C)[C@@H](C)CC` [compound 345] (H-DNPSLSIDLPLILLRTLLELEKTQSQRERAEQNAIIFASV-NH2; N-terminus assumed), the concentration giving a half-maximal response (EC50) at CRF2R (read-out: CRF2R EC50) is 39.7 nM; at CRF1R (read-out: CRF1R EC50), at least 1000 nM. Also, the Emax stood at 100% on CRF2R and 18.8% at CRF1R.
`CC[C@H](C)[C@H](NC(=O)[C@H](C)NC(=O)[C@H](CC(N)=O)NC(=O)[C@H](CCC(N)=O)NC(=O)[C@H](CCC(=O)O)NC(=O)[C@H](C)NC(=O)[C@H](CCCNC(=N)N)NC(=O)[C@H](CCC(=O)O)NC(=O)[C@H](CCCNC(=N)N)NC(=O)[C@H](CCC(N)=O)NC(=O)[C@H](CO)NC(=O)[C@H](CCC(N)=O)NC(=O)[C@@H](NC(=O)[C@H](CCCCN)NC(=O)[C@H](CCC(=O)O)NC(=O)[C@H](CC(C)C)NC(=O)[C@H](CCC(=O)O)NC(=O)[C@H](CC(C)C)NC(=O)[C@H](CC(C)C)NC(=O)[C@@H](NC(=O)[C@H](CCCNC(=N)N)NC(=O)[C@H](CC(C)C)NC(=O)[C@H](CC(C)C)NC(=O)[C@H](CC(C)C)NC(=O)[C@H](CC(C)C)NC(=O)[C@@H]1CCCN1C(=O)[C@H](CC(C)C)NC(=O)[C@H](CC(=O)O)NC(=O)[C@@H](NC(=O)[C@H](CO)NC(=O)[C@H](CC(C)C)NC(=O)[C@H](CO)NC(=O)[C@@H]1CCCN1C(=O)[C@H](CC(N)=O)NC(=O)[C@@H](N)CC(=O)O)[C@@H](C)CC)[C@@H](C)O)[C@@H](C)O)C(=O)N[C@H](C(=O)N[C@@H](Cc1ccccc1)C(=O)N[C@@H](C)C(=O)N[C@@H](CO)C(=O)N[C@H](C(N)=O)C(C)C)[C@@H](C)CC` [compound 346] (H-DNPSLSIDLPLLLLRTLLELEKTQSQRERAEQNAIIFASV-NH2; N-terminus assumed): the Emax on CRF2R turned out to be 97.8%; at CRF1R, 59%.
